# Reference: US5521155A, “Amides of teicoplanin compounds” (Gruppo Lepetit S.p.A, priority 1985, dated 1996)
# How the values were obtained:
# S. pyogenes L 49 = assay: In vivo test in mice experimentally infected with S. pyogenes L 49 (ED50); conditions: mice infected with S. pyogenes L 49; for ED50, route of administration os.: oral
# [1] = Isoelectric point (pI) by isoelectrofocusing with bioautography detection; type: physicochemical; conditions: IEF technique, polyacrylamide gel
# Excerpt: The isoelectrofocusing (IEF) technique coupled with bioautography detection has been used for the determination of the pI of representative compounds of the invention using the following materials: AMPHOLINE carrier ampholytes (40% w/v) were purchased from LKB Produketer AB, Bromma, Sweden. Acrylamide, N,N'-methylenbisacrylamide (BIS), N,N,N',N'-tetramethylethylenediamine (TEMED) and ammonium persulfate were from Bio Rad Laboratorie, Richmond, Calif., USA. Glycerol and Antibiotic agar N. 1 (Grove and Randall medium N. 1) were from E. Merck Darmstadt FRG. GEL FIX polyester sheets were purchased from Serva Feinbiochemica Heidelberg. Phenolindo (2,6-dichlorophenol) came from BDH Chemicals Ltd. Poole, England.
# IEF was made on gel slab using a LKB MULITPHOR 2117 cell and a Bio-Rad Power Supply Model 1420A. Slabs of 24.5×11.5 cm and 1 mm thickness were prepared on a sheet of GEL FIX. Polyacrylamide gels with a concentration of 8% T and with a cross-linkage of 4% C (30% T stock solution was prepared by dissolving 28.8 g of acrylamide and 1.2 g of bis-acrylamide in 100 ml distilled water), glycerol, 3.5% v/v, 2% AMPHOLINE, 0.05% ammonium persulphate as catalyst and 0.05% TEMED as accelerator. The carrier ampholite composition for 35 ml gelling solution was as follows:
# The electrode solutions, as recommended by LKB for the respective pH range, were:
# The gel was cooled to 4° C. with the aid of a LKB 2209 refrigerated constant temperature circulator. After prefocusing for 30 min. at 5 W, the samples (20 μl containing 0.2 to 2.5 μg of antibiotic) were loaded into the slot at the cathodic side. Electrofocusing was performed using 10 W constant power and was completed after 3-31/2 hours with a final potential of 1400 V.
# The pH values were determined by dividing a portion of the gel into 1 cm sections, and eluting the individual pieces at room temperature with 1 ml of 10 mM KCl prior to pH readings.
# The isoelectric point of each antibiotic was determined by interpolation on a curve obtained by plotting pH values versus the distance from the anode.
# Polyacrylamide gel was placed on a 3 mm layer of agar medium N. 1 inoculated with 1% of Bacillus subtilis ATCC 6633 spore (0.5 OD at 600 nm). After 10 min the gel was removed and the plate was incubated overnight at 37° C. and examined for inhibition zones. The contrast between the area of lysis and that of bacterial growth was enhanced by use of Phenolindo(2,6-dichlorophenol) 1% w/v (oxidation-reduction indicator).
# S. faecalis ATCC 7080 = assay: In vitro antibacterial activity, standard agar-dilution test (MIC); type: cell-based; conditions: inoculum about 10^4 CFU/ml, 18-24 h at 37° C.
# Description: (§1) The culture medium ISOSENSITEST BROTH (Oxoid) and the colture medium TODD-[…] BROTH (Difco) are used for growing staphylococci and streptococci, respectively. Broth cultures are diluted so that the final inoculum is about 10^4 colony forming units/ml (CFU/ml).
# S. pyogenes C 203 = assay: as above; type: cell-based; conditions: inoculum about 10^4 CFU/ml, 18-24 h at 37° C.
# Description: as §1
# E. coli SKF 12140 = assay: as above; type: cell-based; conditions: inoculum about 10^4 CFU/ml, 18-24 h at 37° C.
# Description: as §1
# S. pneumoniae UC 41 = assay: as above; type: cell-based; conditions: inoculum about 10^4 CFU/ml, 18-24 h at 37° C.
# Description: as §1
# [2] = tested on: Pseudomonas aeruginosa ATCC 10145; assay: as above; type: cell-based; conditions: inoculum about 10^4 CFU/ml, 18-24 h at 37° C.
# Description: as §1
# S. aureus ATCC 6538 = assay: as above; type: cell-based; conditions: inoculum about 10^4 CFU/ml, 18-24 h at 37° C.
# Description: as §1
# [3] = tested on: Proteus vulgaris X 19H ATCC 881; assay: as above; type: cell-based; conditions: inoculum about 10^4 CFU/ml, 18-24 h at 37° C.
# Description: as §1
# S. aureus Tour = assay: as above; type: cell-based; conditions: inoculum about 10^4 CFU/ml, 18-24 h at 37° C.
# Description: as §1
# [4] = tested on: S. epidermidis ATCC 12228; assay: as above; type: cell-based; conditions: inoculum about 10^4 CFU/ml, 18-24 h at 37° C.
# Description: as §1
# Acid-base titration (pK) = type: physicochemical; conditions: acid-base titration in METHYLCELLOSOLVE/H2O 4:1 (v/v), 0.01N KOH; for pK1 / pK2: salt form per Table IV
# Description: The following table (Table IV) reports the acid-base titration data of some representative compounds of the invention. The assays were carried out in METHYLCELLOSOLVE/H2 O, 4:1(v/v). A sample is dissolved in METHYLCELLOSOLVE/H2 O, 4:1(v/v) (10 umole in about 20 ml) and then 0.01N HCl (2 ml) is added and the mixture is titrated with 0.01N KOH in the same solvent mixture.
Isoelectric point (pI) [1],MIC S. faecalis ATCC 7080 (S. faecalis ATCC 7080) [µg/mL],MIC S. pyogenes C 203 (S. pyogenes C 203) [µg/mL],MIC E. coli SKF 12140 (E. coli SKF 12140) [µg/mL],MIC S. pneumoniae UC 41 (S. pneumoniae UC 41) [µg/mL],MIC Pseudomonas aeruginosa ATCC 10145 [2] [µg/mL],MIC S. aureus ATCC 6538 (S. aureus ATCC 6538) [µg/mL],MIC Proteus vulgaris X 19H ATCC 881 [3] [µg/mL],MIC S. aureus Tour (S. aureus Tour) [µg/mL],MIC S. epidermidis ATCC 12228 [4] [µg/mL],pK1 (Acid-base titration (pK)),pK2 (Acid-base titration (pK)),pK3 (Acid-base titration (pK); value not in brackets),SMILES,"ED50, route of administration os. (S. pyogenes L 49) [mg/kg]","ED50, route of administration s.c (S. pyogenes L 49) [mg/kg]"
8.9,0.25,0.12,64,0.25,> 128,0.12,> 128,0.12,0.06,–,–,–,CC(=O)NC1C(OC2c3ccc(c(Cl)c3)Oc3cc4cc(c3O)Oc3ccc(cc3Cl)CC3NC(=O)C(N)c5ccc(O)c(c5)Oc5cc(O)cc(c5)C(NC3=O)C(=O)NC4C(=O)NC3C(=O)NC2C(=O)NC(C(=O)NCCCN(C)C)c2cc(O)cc(O)c2-c2cc3ccc2O)OC(CO)C(O)C1O (stereo not drawn) [Compound 13],> 300,2.2
8.0,0.5,0.5,> 128,1,> 128,–,> 128,0.5,0.12,5.3,6.8,–,CC(=O)NC1C(OC2c3ccc(c(Cl)c3)Oc3cc4cc(c3O)Oc3ccc(cc3Cl)CC3NC(=O)C(N)c5ccc(O)c(c5)Oc5cc(O)cc(c5)C(NC3=O)C(=O)NC4C(=O)NC3C(=O)NC2C(=O)NC(C(=O)NCCN2CCOCC2)c2cc(O)cc(O)c2-c2cc3ccc2O)OC(CO)C(O)C1O (stereo not drawn) [Compound 14],–,–
8.8,0.12,0.06,8,0.12,64,–,64,0.12,0.016,6.4,7.8,–,NC1C(=O)NC2Cc3ccc(c(Cl)c3)Oc3cc4cc(c3O)Oc3ccc(cc3Cl)C(O)C3NC(=O)C(NC(=O)C4NC(=O)C(NC2=O)c2cc(O)cc(c2)Oc2cc1ccc2O)c1ccc(O)c(c1)-c1c(O)cc(O)cc1C(C(=O)NCCN1CCCC1)NC3=O (stereo not drawn) [Compound 22],> 300,1.6
7.9,0.25,0.12,64,0.25,> 128,–,> 128,0.5,0.063,6.45,–,–,NC1C(=O)NC2Cc3ccc(c(Cl)c3)Oc3cc4cc(c3O)Oc3ccc(cc3Cl)C(O)C3NC(=O)C(NC(=O)C4NC(=O)C(NC2=O)c2cc(O)cc(c2)Oc2cc1ccc2O)c1ccc(O)c(c1)-c1c(O)cc(O)cc1C(C(=O)NCCCCCC(=O)NC1C(O)OC(CO)C(O)C1O)NC3=O (stereo not drawn) [Compound 31],> 300,2.9
–,0.12,0.12,4,0.06,32,–,32,0.06,0.06,–,6.5,8.9,COC(=O)C(CCCCN)NC(=O)C1NC(=O)C2NC(=O)C(NC(=O)C3NC(=O)C4NC(=O)C(Cc5ccc(c(Cl)c5)Oc5cc3cc(c5O)Oc3ccc(cc3Cl)C2O)NC(=O)C(N)c2ccc(O)c(c2)Oc2cc(O)cc4c2)c2ccc(O)c(c2)-c2c(O)cc(O)cc21.Cl.Cl (stereo not drawn) [Compound 73],> 300,0.81
8.1,0.12,0.06,8,0.12,32,–,64,0.06,0.06,–,–,–,Cl.Cl.NC1C(=O)NC2Cc3ccc(c(Cl)c3)Oc3cc4cc(c3O)Oc3ccc(cc3Cl)C(O)C3NC(=O)C(NC(=O)C4NC(=O)C(NC2=O)c2cc(O)cc(c2)Oc2cc1ccc2O)c1ccc(O)c(c1)-c1c(O)cc(O)cc1C(C(=O)NCCCN1CCOCC1)NC3=O (stereo not drawn) [Compound 78],> 300,1.4
8.9,0.12,0.06,8,0.06,32,–,64,0.12,0.06,–,–,–,Cl.Cl.NC1C(=O)NC2Cc3ccc(c(Cl)c3)Oc3cc4cc(c3O)Oc3ccc(cc3Cl)C(O)C3NC(=O)C(NC(=O)C4NC(=O)C(NC2=O)c2cc(O)cc(c2)Oc2cc1ccc2O)c1ccc(O)c(c1)-c1c(O)cc(O)cc1C(C(=O)NC1CN2CCC1CC2)NC3=O (stereo not drawn) [Compound 83],> 300,0.46
7.8,0.12,0.12,64,0.12,> 128,–,> 128,0.12,0.06,–,–,–,NCCCCC(NC(=O)C1NC(=O)C2NC(=O)C(NC(=O)C3NC(=O)C4NC(=O)C(Cc5ccc(c(Cl)c5)Oc5cc3cc(c5O)Oc3ccc(cc3Cl)C2O)NC(=O)C(N)c2ccc(O)c(c2)Oc2cc(O)cc4c2)c2ccc(O)c(c2)-c2c(O)cc(O)cc21)C(=O)O (stereo not drawn) [Compound 84],> 300,1.65
9.1,0.12,0.06,16,0.12,128,–,128,0.06,0.06,–,–,–,CN(C)CCCCCCCNC(=O)C1NC(=O)C2NC(=O)C(NC(=O)C3NC(=O)C4NC(=O)C(Cc5ccc(c(Cl)c5)Oc5cc3cc(c5O)Oc3ccc(cc3Cl)C2O)NC(=O)C(N)c2ccc(O)c(c2)Oc2cc(O)cc4c2)c2ccc(O)c(c2)-c2c(O)cc(O)cc21 (stereo not drawn) [Compound 101],–,–
